Reference: ChEMBL document CHEMBL4152385, “Synthesis, Receptor Affinity, and Antiallodynic Activity of Spirocyclic σ Receptor Ligands with Exocyclic Amino Moiety” (J Med Chem, 2018)
Activity calls are given as the source filed them. No cut-off for these calls is given here.

How the values were obtained:
[1] = target: T1, Sigma intracellular receptor 2 (Rattus norvegicus, UniProt Q5U3Y7); experiment: Displacement of [3H]-di-o-tolylguanidine from sigma2 receptor in rat liver membranes incubated for 120 mins by scintillation counting method; assay type: cell membranes, Membrane
T1 sequence (Q5U3Y7 whole entry): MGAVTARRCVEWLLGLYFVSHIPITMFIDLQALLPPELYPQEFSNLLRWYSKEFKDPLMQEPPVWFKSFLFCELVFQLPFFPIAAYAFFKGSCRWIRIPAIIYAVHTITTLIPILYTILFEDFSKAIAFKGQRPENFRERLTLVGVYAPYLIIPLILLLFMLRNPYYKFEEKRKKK

[2] = target: Sigma non-opioid intracellular receptor 1 (Cavia porcellus, UniProt Q60492); experiment: Displacement of [3H]-(+)-pentazocine from sigma1 receptor in guinea pig brain cortex membranes incubated for 120 mins by scintillation counting method; assay type: cell membranes
[3] = Selectivity ratio of Ki for sigma2 receptor in rat liver membranes to Ki for sigma1 receptor in guinea pig brain cortex membranes; assay type: cell membranes
Mus musculus [4] = experiment: Antiallodynic activity in CD1 mouse model of capsaicin-induced mechanical allodynia assessed as effect on paw withdrawal latency time at 2 to 64 mg/kg, sc administered 30 mins before capsaicin addition and measured at 30 secs intervals; assay type: functional, organism-based
[5] = target: Delta-type opioid receptor (Rattus norvegicus, UniProt P33533); experiment: Displacement of [3H]DPDPE from DOR in rat brain membranes incubated for 120 mins by scintillation counting method; assay type: cell membranes, Membrane
in vitro = settings: mouse, liver microsomes
Description: Metabolic stability in mouse liver microsomes assessed as compound remaining at 25 uM after 1 hr in presence of NADPH by LC-MS analysis

Mus musculus [6] = experiment: Antiallodynic activity in CD1 mouse model of capsaicin-induced mechanical allodynia assessed as effect on paw withdrawal latency time at 4 to 64 mg/kg, sc administered 30 mins before capsaicin addition and measured at 30 secs intervals; assay type: functional, organism-based
Mu-type opioid receptor = Mu-type opioid receptor (Cavia porcellus, UniProt P97266); experiment: Displacement of [3H]DAMGO from MOR in guinea pig brain membranes incubated for 120 mins by scintillation counting method; assay type: cell membranes, Membrane
Mus musculus [7] = experiment: Antiallodynic activity in CD1 mouse model of capsaicin-induced mechanical allodynia assessed as effect on paw withdrawal latency time at 4 to 32 mg/kg, sc administered 5 mins after sigma1 receptor agonist PRE-084 dosing followed by capsaicin addition and measured after 30 mins post compound dose; assay type: functional, organism-based
[8] = Stability in pH 7.4 phosphate buffer assessed as parent compound remaining after 24 hrs by HPLC; assay type: physicochemical; settings: pH 7.4, 24 h
[9] = Stability in pH 2 aqueous HCl solution assessed as parent compound remaining after 24 hrs by HPLC; assay type: physicochemical; settings: buffer, pH 2, 24 h
Mus musculus [10] = experiment: Antiallodynic activity in CD1 mouse model of capsaicin-induced mechanical allodynia assessed as effect on paw withdrawal latency time at 32 mg/kg, sc administered 5 mins after sigma1 receptor agonist PRE-084 dosing followed by capsaicin addition and measured after 30 mins post compound dose; assay type: functional, organism-based
[11] = target: Glutamate receptor ionotropic, NMDA 2B (Homo sapiens, UniProt Q13224); experiment: Displacement of [3H]ifenprodil from GluN2B (unknown origin) expressed in mouse L(tk-) cell membranes incubated for 120 mins by scintillation counting method
[12] = Displacement of [3H]-(+)-MK-801 from NMDA PCP binding site in pig brain cortex membrane incubated for 120 mins by scintillation counting method; assay type: cell membranes, Sus scrofa

Sigma non-opioid intracellular receptor 1, sequence (Q60492 whole entry): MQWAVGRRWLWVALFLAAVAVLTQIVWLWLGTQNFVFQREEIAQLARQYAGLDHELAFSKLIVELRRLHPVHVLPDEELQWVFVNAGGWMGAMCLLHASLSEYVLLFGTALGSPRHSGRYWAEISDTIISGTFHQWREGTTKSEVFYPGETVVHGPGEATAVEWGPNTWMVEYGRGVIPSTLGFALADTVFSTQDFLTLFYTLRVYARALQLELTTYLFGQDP
Delta-type opioid receptor, sequence (P33533 whole entry): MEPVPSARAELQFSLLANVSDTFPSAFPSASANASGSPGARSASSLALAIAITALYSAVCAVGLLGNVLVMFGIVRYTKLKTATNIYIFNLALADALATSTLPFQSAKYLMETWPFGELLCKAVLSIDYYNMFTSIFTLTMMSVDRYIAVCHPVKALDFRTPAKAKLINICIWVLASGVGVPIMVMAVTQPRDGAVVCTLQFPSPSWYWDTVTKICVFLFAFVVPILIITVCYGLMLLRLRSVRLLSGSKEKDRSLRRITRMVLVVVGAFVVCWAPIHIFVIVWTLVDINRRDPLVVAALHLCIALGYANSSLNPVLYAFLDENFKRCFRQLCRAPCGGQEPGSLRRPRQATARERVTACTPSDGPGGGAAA
Glutamate receptor ionotropic, NMDA 2B, sequence (Q13224 whole entry): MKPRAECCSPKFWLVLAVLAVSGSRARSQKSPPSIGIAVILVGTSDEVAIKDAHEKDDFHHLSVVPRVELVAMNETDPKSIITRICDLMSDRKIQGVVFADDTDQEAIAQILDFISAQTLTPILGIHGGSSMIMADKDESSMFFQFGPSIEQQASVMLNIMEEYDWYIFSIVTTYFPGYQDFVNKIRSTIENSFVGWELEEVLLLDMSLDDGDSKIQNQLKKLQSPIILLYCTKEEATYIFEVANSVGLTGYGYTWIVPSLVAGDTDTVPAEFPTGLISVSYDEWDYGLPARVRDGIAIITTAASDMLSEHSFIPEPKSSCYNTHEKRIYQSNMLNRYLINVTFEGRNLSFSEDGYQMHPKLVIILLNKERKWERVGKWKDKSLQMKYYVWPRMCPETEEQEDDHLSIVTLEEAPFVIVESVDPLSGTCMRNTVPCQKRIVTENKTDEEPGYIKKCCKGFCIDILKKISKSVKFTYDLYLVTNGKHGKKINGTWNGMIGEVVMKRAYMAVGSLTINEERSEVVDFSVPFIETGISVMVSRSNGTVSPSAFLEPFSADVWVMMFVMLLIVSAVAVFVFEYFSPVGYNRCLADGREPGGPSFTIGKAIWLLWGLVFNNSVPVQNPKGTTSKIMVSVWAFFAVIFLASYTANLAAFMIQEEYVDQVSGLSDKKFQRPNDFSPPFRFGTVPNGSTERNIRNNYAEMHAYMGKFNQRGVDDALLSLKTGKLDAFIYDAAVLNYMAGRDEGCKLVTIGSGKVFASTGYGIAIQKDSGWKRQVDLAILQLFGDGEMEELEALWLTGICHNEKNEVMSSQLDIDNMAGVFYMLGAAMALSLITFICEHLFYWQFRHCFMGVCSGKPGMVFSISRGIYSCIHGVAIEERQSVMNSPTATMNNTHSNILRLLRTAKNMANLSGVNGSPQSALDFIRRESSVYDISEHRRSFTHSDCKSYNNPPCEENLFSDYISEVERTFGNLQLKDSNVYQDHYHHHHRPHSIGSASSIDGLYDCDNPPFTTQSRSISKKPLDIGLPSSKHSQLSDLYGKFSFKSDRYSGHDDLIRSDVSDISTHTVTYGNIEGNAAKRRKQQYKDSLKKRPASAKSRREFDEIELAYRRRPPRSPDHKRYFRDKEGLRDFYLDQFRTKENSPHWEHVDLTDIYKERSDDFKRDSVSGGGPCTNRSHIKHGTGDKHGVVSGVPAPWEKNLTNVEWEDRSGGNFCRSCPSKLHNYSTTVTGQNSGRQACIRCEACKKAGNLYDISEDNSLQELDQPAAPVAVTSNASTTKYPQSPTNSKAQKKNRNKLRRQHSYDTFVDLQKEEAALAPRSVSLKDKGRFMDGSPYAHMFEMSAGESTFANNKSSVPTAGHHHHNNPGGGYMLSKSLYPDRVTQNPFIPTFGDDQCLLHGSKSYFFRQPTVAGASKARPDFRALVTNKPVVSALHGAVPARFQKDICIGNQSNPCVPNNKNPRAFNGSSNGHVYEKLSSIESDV
Mu-type opioid receptor, sequence (P97266 whole entry): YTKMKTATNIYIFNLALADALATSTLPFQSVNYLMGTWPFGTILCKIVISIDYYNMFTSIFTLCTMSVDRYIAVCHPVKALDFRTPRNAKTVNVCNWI

Structure (SMILES)	Ki [1] [nM]	Ki [2] [nM]	also measured
CO[C@H]1Cc2ccccc2C2(CCC(NCCCc3cn(-c4ccc(F)cc4)c4ccccc34)CC2)O1 (stereo not given in full)		635	
COc1cc2c(cc1OC)CN(C1CCC3(CC1)O[C@H](CCF)Cc1ccccc13)CC2 (stereo not given in full)		807	
CO[C@H]1Cc2ccccc2C2(CCC(NCc3ccccc3)CC2)O1 (stereo not given in full)		158	
Cc1ccc(CNC2CCC3(CC2)O[C@@H](CCO)Cc2ccccc23)c(C)c1 (stereo not given in full)	179	548	
CO[C@@H]1Cc2ccccc2C2(CCC(N3CCN(C4CCCCC4)CC3)CC2)O1 (stereo not given in full)	62	6.3	Ratio Ki [3]: 10
FCC[C@@H]1Cc2ccccc2C2(CCC(NC3CCc4ccccc4CC3)CC2)O1 (stereo not given in full)	305	667	
FCC[C@H]1Cc2ccccc2C2(CCC(N3CCN(C4CCCCC4)CC3)CC2)O1 (stereo not given in full)	432	19	Activity (Mus musculus [4]): Active; Ki [5]: 647 nM; remaining at 1 h, 25 µM (in vitro): 69.5%; Activity (Mus musculus [6]): Active; Ki (Mu-type opioid receptor): 434 nM; Activity (Mus musculus [7]): inactive; Stability [8]: Stable; Stability [9]: Stable; Activity (Mus musculus [10]): inactive; Ki [11]: 31 nM; Ki [12]: > 1000 nM
OCC[C@H]1Cc2ccccc2C2(CCC(N3CCN(C4CCCCC4)CC3)CC2)O1 (stereo not given in full)		28	
Cc1ccc(CNC2CCC3(CC2)O[C@H](CCO)Cc2ccccc23)c(C)c1 (stereo not given in full)	381		
CO[C@@H]1Cc2ccccc2C2(CCC(NCc3ccccc3)CC2)O1 (stereo not given in full)		538	

Second part, led by results:

Ki [1] [nM]	Ki [2] [nM]	Structure (SMILES)	also measured
231		CCOC(=O)C[C@@H]1Cc2ccccc2C2(CCC(NCc3ccc(C)cc3C)CC2)O1 (stereo not given in full)	
159	547	CCOC(=O)C[C@H]1Cc2ccccc2C2(CCC(NCc3ccc(C)cc3C)CC2)O1 (stereo not given in full)	
527	198	FCC[C@H]1Cc2ccccc2C2(CCC(NC3CCc4ccccc4CC3)CC2)O1 (stereo not given in full)	
213	4.4	CO[C@H]1Cc2ccccc2C2(CCC(N3CCN(C4CCCCC4)CC3)CC2)O1 (stereo not given in full)	Ratio Ki [3]: 50
77	265	CO[C@H]1Cc2ccccc2C2(CCC(NC3CCc4ccccc4CC3)CC2)O1 (stereo not given in full)	
172	61	OCC[C@@H]1Cc2ccccc2C2(CCC(N3CCN(C4CCCCC4)CC3)CC2)O1 (stereo not given in full)	
7.6	736	CO[C@@H]1Cc2ccccc2C2(CCC(NCc3ccc(C)cc3C)CC2)O1 (stereo not given in full)	
